Test results as given in patent publication US11679065B2, “Compositions with sulfur having enhanced efficacy and aesthetics” (The Procter & Gamble Company, priority 2020, dated 2023).

Key:
Malassezia [1] = assay: Minimal inhibitory concentration of sulfur (known value); type: cell-based; settings: generally accepted MIC, gray box in FIGS. 1-4
Protocol: A dissolution and diffusion model is utilized to help dimension sulfur solubility in sebum over a 24 hour period. The model predicts where sulfur concentration will rise above the minimal inhibitory concentration (MIC is known to be in the range of 10-50 ppm for sulfur), for the fungus that causes dandruff (Malassezia). The model factors in sulfur dissolution varying sebum thickness and sebum production rate over the 24 hour period as well as a loss term for sulfur migration into the scalp/stratum corneum. FIGS. 1-4) show simulation outputs for mean sulfur particles sizes, 2, 34, 100 and 150 micron sulfur particles respectively wherein each graph is a compilation of curves representing variations in initial sebum thickness and production rate. The gray box in each figure represents a range of sulfur concentrations that encompass the generally accepted MIC (log 10(MIC) range is 1-1.7). It is observed from the simulations that as particle size increases, the approximate number of hours that sulfur concentration is above the MIC expands until the particle size of about 150 microns, wherein the dissolution of sulfur in sebum becomes the rate limiting step and the concentration of sulfur never exceeds the MIC needed for a dandruff benefit.

Malassezia [2] = settings: fungus that causes dandruff (Malassezia); known range; cited from earlier work

SMILES: S1SSSSSSS1 [Sulfur]
- log 10(MIC) range (Malassezia [1]): 1-1.7
- minimal inhibitory concentration (MIC) (Malassezia [2]): 10-50 ppm
